The source of these data is article PMC4157868, “Real-Time Analysis of Imatinib- and Dasatinib-Induced Effects on Chronic Myelogenous Leukemia Cell Interaction with Fibronectin” (PLoS ONE, 2014).

Experiment [1] has as its system JURL-MK1 cells on fibronectin. The experiment can be described thus: kinetics of JURL-MK1 cell adhesivity to fibronectin (adherent cell fraction). The class given is cell-based, human. From the text: Supplementary file pone.0107367.s001.pdf: Figure S1 Kinetics of dasatinib-induced cell death and changes in cell adhesivity to fibronectin. […] Cell fraction in sub-G1 region of cell cycle phase distribution in samples stained with propidium iodide. […] (PDF) Click here for additional data file.

In experiment [2] the test system is JURL-MK1 and MOLM-7 cells. The experiment can be described thus: apoptosis onset: caspase activation (Ac-DEVD-AFC), Annexin V staining. In kind it is cell-based, human.
Experiment [3] relates to active SFKs in MOLM-7 cells. The experiment can be described thus: immunofluorescence of phospho-SFK in adhesion sites. In kind it is cell-based, human. Conditions: MOLM-7 on fibronectin. How it is done: The cells were plated on fibronectin coated coverslips or glass bottom dishes, incubated for 60 minutes in CO2 incubator, fixed with 2% paraformaldehyde, permeabilized in 0.3% Triton/PBS and incubated with anti-phospho-SRC family primary antibody and a secondary antibody (Alexa Fluor 488 Goat Anti-Rabbit). F-actin was labeled with rhodamine phalloidin (Molecular Probes). Samples were analyzed using an Olympus Fluoview FV1000 confocal laser scanning microscope.
To support our hypothesis that SFKs may be involved in regulation of cell interaction with fibronectin, we studied the intracellular localization of active SFKs using the phospho-specific anti-SFK antibody. […] In JURL-MK1 cells, the active SFKs were found mainly in the contours of cell-surface contact areas and their localization to the sites of the closest contact was less evident due to different morphology (Figure 8B). […] As the main SFKs in JURL-MK1 and MOLM-7 were LYN and LYN+LCK, respectively, we also analyzed the intracellular localization of these individual kinases.
(PDF) Click here for additional data file.

Experiment [4] deals with HEL and JURKAT cells on fibronectin. The experiment can be described thus: real-time microimpedance, cell interaction with fibronectin, BCR-ABL-negative cells. In kind it is cell-based, human. Conditions: low-dose (several nM) dasatinib.
Excerpt: (§1) (PPTX) Click here for additional data file.
as §1

Experiment [5] relates to JURL-MK1 and MOLM-7 cells on fibronectin. In words: end-point adherent cell fraction on fibronectin-coated wells.
Procedure: Briefly, the cells (1×10^4) were seeded into fibronectin-coated wells on a microtitration plate and incubated for 1 h at 37°C. Then, the cells were washed wih PBS/Ca^2+/Mg^2+ and the remaining cells were quantified by means of fluorescent labelling (CyQuant Cell Proliferation Assay Kit; Molecular Probes). The adherent cell fraction (ACF) was calculated using the fluorescence signal from fibronectin-coated plate and the signal obtained from a reference plate that contained the total cell number.
For experiment [6] the test system is unchanged. The experiment can be described thus: real-time microimpedance, cell interaction with fibronectin, BCR-ABL-positive cells. In kind it is cell-based, human. Conditions: dasatinib 100 nM, clinically relevant dose.
Procedure: RTCA xCELLigence DP system (Acea Biosciences, San Diego, CA, U.S.A.) was placed in an incubator (at 37°C) with 5% CO2 content. […] The microimpedance signal (cell index) was set to zero in these conditions. […] DMSO (0.1%) was also added to control wells.
Cells were seeded into E-plates and incubated for 1–2 h to allow for cell attachment to the coated cell bottom. After signal stabilization, the drug was added in a small drop while the corresponding solvent was added to control wells as any mechanical perturbation usually produced minor changes, too.
The cells (6×10^4 per well) were seeded into fibronectin-coated E-plates. After the microimpedance signal stabilization, the appropriate inhibitor was added in triplets. […] Microimpedance signal (cell index) was normalized to 1 at the time of inhibitor addition.
The subject of experiment [7] is JURL-MK1 cells on fibronectin. Conditions: cited from earlier work.

Turning to `CC(C)[C@H](NC(=O)c1ccc2ccccc2n1)C(=O)N[C@@H](CC(=O)O)C(=O)COc1c(F)cccc1F` [Q-VD-OPh], the “effect on the dasatinib-induced decrease of cell adhesivity to fibronectin” value in experiment [1] (10 µM Q-VD-OPh added together with 2 nM dasatinib, 24 h) is listed as “This decrease was prevented”.
`Cc1nc(Nc2ncc(C(=O)Nc3c(C)cccc3Cl)s2)cc(N2CCN(CCO)CC2)n1` [dasatinib]: in experiment [1] (dasatinib 2 nM), the “cell adhesivity to fibronectin after 24 h treatment” value is given as “cell adhesivity to fibronectin lowered”. For the same compound, the “number of early apoptotic cells, Annexin V staining” value in experiment [2] (10 nM dasatinib, 6 h, JURL-MK1 and MOLM-7) was “no significant increase in the number of early apoptotic cells”. Moreover, in experiment [2] (dasatinib 10 nM), the “time of treatment at which caspases became activated” value is “about 6 h”. The “phospho-SFK fluorescent signal at adhesion sites” value in experiment [3] (100 nM dasatinib, 30 min) was “complete disappearance of the green fluorescent signal from adhesion sites”. Also, the “change of cell binding to fibronectin” value in experiment [4] is recorded as “no significant change”. The “change in number of cells attached to fibronectin” value in experiment [5] (dasatinib 1 to 10 nM, JURL-MK1 and MOLM-7) is reported as “mild increase in the number of attached cells”. In addition, in experiment [5] (dasatinib at therapeutic concentrations (100 nM)), the “change in CML cell binding to fibronectin” value is listed as “does not enhance CML cell binding to fibronectin”. In addition, in experiment [6], the “effect on CML cell binding to fibronectin” value is recorded as “almost no effect”.
On to `Cc1ccc(NC(=O)c2ccc(CN3CCN(C)CC3)cc2)cc1Nc1nccc(-c2cccnc2)n1` [imatinib], for which, in experiment [7] (imatinib, first several hours of treatment, JURL-MK1), the “cell fraction adhering to FN” value was “the cell fraction adhering to FN increased”.
Turning to `CC(C)(C)n1nc(-c2ccc(Cl)cc2)c2c(N)ncnc21` [PP2], the “phospho-SFK fluorescent signal at adhesion sites” value in experiment [3] (10 µM PP2, 30 min) is reported as “The same effect was also reached”. Also, the “effect on JURL-MK1 cell adhesivity to FN” value in experiment [7] (PP2, recently reported by the authors) was “increases JURL-MK1 cell adhesivity to FN”.
